Experimental findings from PMC6111308, “Antimycobacterial, Enzyme Inhibition, and Molecular Interaction Studies of Psoromic Acid in Mycobacterium tuberculosis: Efficacy and Safety Investigations” (Journal of Clinical Medicine, 2018) are described below.

For this assay, the target named is T1, arylamine-N-acetyltransferase (TBNAT) (Mycobacterium tuberculosis, UniProt P9WJI5).
T1 construct: gene nat
T1 sequence (P9WJI5 1-283): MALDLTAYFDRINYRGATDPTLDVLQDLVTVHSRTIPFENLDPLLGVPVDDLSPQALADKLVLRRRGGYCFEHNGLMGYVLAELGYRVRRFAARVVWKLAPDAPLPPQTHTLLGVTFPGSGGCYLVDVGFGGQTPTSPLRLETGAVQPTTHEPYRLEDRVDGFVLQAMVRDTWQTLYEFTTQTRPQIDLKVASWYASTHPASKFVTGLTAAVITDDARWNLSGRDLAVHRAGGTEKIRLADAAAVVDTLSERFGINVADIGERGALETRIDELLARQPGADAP
Description: biochemical.

With `COc1cc(C(=O)O)c2c(c1C)OC(=O)c1c(C)cc(O)c(C=O)c1O2` [PA, psoromic acid], the IC50 (as a rule, the midpoint of a concentration-inhibition curve) came out at 8.7 µM. In other words, the single-digit micromolar range.

The compound `NNC(=O)c1ccncc1` [INH, isoniazid] came in with an IC50 of 6.2 µM.
